# Measurements taken from PubChem BioAssay AID1963959 (Molecular Pharmacology Branch, DTP, NCI, 2024).
# System: T-47D spheroids with HUVEC/MSC, viability
# Assay: Anticancer human tumor T-47D cell line growth inhibition [PI3K];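 further: spheroids exposed to agents for seven days before reading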;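 on viability, T/C: percent of DMSO vehicle control luminescence so 100% = untreated growth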
# Conditions: for viability, T/C: stronger effect = lower value
# Description: Combinatorial screen of targeted agents with the PI3K inhibitors inavolisib, alpelisib, duvelisib, and copanlisib in multi-cell type tumor spheroids
# A high-throughput screen of multi-cell type tumor spheroids was designed to identify active combinations of targeted small molecules and PI3K pathway inhibitors. Complex spheroids include a stromal component modeled by human endothelial cells (HUVEC) and fibroblasts modeled by human mesenchymal stem cells (MSCs). The concentration ranges selected for each drug and investigational agent were based upon clinically achievable concentrations if the clinical Cmax of the agent was known.
# Compounds. The drugs and investigational agents: inavolisib (NSC800729), alpelisib (NSC765974), duvelisib (NSC772469), copanlisib (NSC816437), ipatasertib (NSC767898), afuresertib (NSC778305), talazoparib (NSC767125), sapanisertib (NSC764658), selumetinib (NSC741078), tovorafenib (DAY101, NSC766906), vemurafenib (NSC761431), ravoxertinib (NSC781343), sotorasib (NSC818433), MRTX1133 (NSC 836407), abemaciclib (NSC 768073), palbociclib (NSC758247), venetoclax (NSC 766270), SY5609 (NSC837396), enzalutamide (NSC755605), and darolutamide (NSC825331), were obtained from the National Cancer Institute (NCI) Developmental Therapeutics Program Chemical Repository. The FDA-approved anticancer drug set is available from the NCI Developmental Therapeutics Program. […] The stock solutions were prepared in dimethyl sulfoxide (DMSO, Sigma-Aldrich, St. Louis, MO, cat. D2650) at 800-fold the tested concentration and stored at -70 degrees C prior to their use. All drugs and investigational agents were tested over a range starting from a high concentration at or near the clinical Cmax and decreasing in half-log increments. If the clinical Cmax for an agent had not been determined, the highest concentration tested was 10 microM.
# Cell Culture. All cells were maintained in an incubator at 37 degrees C and 5% CO2 with 95% humidity. The PDC lines were cultured according to standard operating procedures established by the NCI PDMR (https://pdmr.cancer.gov/sops/default.htm). All PDCs were thawed and cultured in Matrigel-coated flasks prepared with a working solution of 1X Ham's F-12 nutrient mix, without supplementation (Invitrogen, Waltham, MA, cat. 11765054), 100 U/mL penicillin-streptomycin (Invitrogen, cat. 15140122), and 2.5% Matrigel (Corning Inc., Corning, NY, cat. 354248) for the first three passages. The 354836-022-R-J1-PDC, 475296-252-R-J1-PDC, and 997726-040-R-J2-PDC lines were cultured in 6A media, which includes advanced DMEM/F-12 (Thermo Fisher Scientific, cat. 12634028), 10 mM HEPES (Thermo Fisher Scientific, cat. 15630080), 1X GlutaMAX supplement (Thermo Fisher Scientific, cat. 35050061), 0.1 mg/mL primocin (InvivoGen, San Diego, CA, cat. ant-pm-2), 10% defined fetal bovine serum, heat inactivated (HyClone Laboratories Inc., Logan, UT, cat. SH30070.03HI), 50% L-WRN conditioned media (ATCC, cat. CRL-3276), 1.25 mM N-Acetyl-L-cysteine (Sigma-Aldrich, cat. A9165), 10 mM nicotinamide (Sigma-Aldrich, cat. N0636), 1X B-27 supplement (Thermo Fisher Scientific, cat. 17504044), 1X N-2 supplement (Thermo Fisher Scientific, cat. 17502048), and 10 microM Y-27632 dihydrochloride (Tocris Bioscience, Bristol, United Kingdom, cat. 1254). The 624824-186-R-J2-PDC line was cultured in 6C/Colon 1B media, which includes all 6A media components plus 50 ng/mL human EGF recombinant protein (Thermo Fisher Scientific, cat. PHG0311). […]
# [1] = curve of first compound, second compound 0.00316 µM
# [2] = curve of first compound, second compound 0.01 µM
# [3] = curve of first compound, second compound 0.0316 µM
# [4] = curve of first compound, second compound 0.1 µM
# [5] = curve of first compound, second compound 0.316 µM
# [6] = curve of first compound, second compound 1 µM
smiles,measurement,setting,value
CC(=O)c1c(C)c2cnc(Nc3ccc(N4CCNCC4)cn3)nc2n(C2CCCC2)c1=O,"viability, T/C",compound 0.000316 µM,94.9% [middle of 4 runs]
same,"viability, T/C",compound 0.001 µM,98% [middle of 4 runs]
same,"viability, T/C",compound 0.0316 µM,96.2% [middle of 4 runs]
same,"viability, T/C",compound 0.1 µM,86.7% [middle of 4 runs]
same,IC50,curve of compound,> 0.1 µM
CC(Cn1ccc(-c2ccc(C#N)c(Cl)c2)n1)NC(=O)c1cc(C(C)O)[nH]n1 (stereo not given) + CC(Nc1ccc2c(c1)OCCn1cc(N3C(=O)OCC3C(F)F)nc1-2)C(N)=O,IC50,[1],> 10 µM
same,IC50,[2],> 10 µM
same,IC50,[3],> 10 µM
same,IC50,[4],> 10 µM
same,IC50,[5],> 10 µM
same,IC50,[6],0.25 µM
same,"viability, T/C","second compound 0.00316 µM, first compound 0.0316 µM",92.5%
same,"viability, T/C","second compound 0.00316 µM, first compound 0.1 µM",91.2%
same,"viability, T/C","second compound 0.00316 µM, first compound 0.316 µM",83.2%
same,"viability, T/C","second compound 0.00316 µM, first compound 1 µM",79.1%
same,"viability, T/C","second compound 0.00316 µM, first compound 3.16 µM",88.5%
same,"viability, T/C","second compound 0.00316 µM, first compound 10 µM",59.3%
same,"viability, T/C","second compound 0.01 µM, first compound 0.0316 µM",114%
same,"viability, T/C","second compound 0.01 µM, first compound 0.1 µM",85.7%
same,"viability, T/C","second compound 0.01 µM, first compound 0.316 µM",92.1%
same,"viability, T/C","second compound 0.01 µM, first compound 1 µM",73.5%
same,"viability, T/C","second compound 0.01 µM, first compound 3.16 µM",92.2%
same,"viability, T/C","second compound 0.01 µM, first compound 10 µM",63.2%
same,"viability, T/C","second compound 0.0316 µM, first compound 0.0316 µM",125%
same,"viability, T/C","second compound 0.0316 µM, first compound 0.1 µM",98%
same,"viability, T/C","second compound 0.0316 µM, first compound 0.316 µM",76.2%
same,"viability, T/C","second compound 0.0316 µM, first compound 1 µM",83.2%
same,"viability, T/C","second compound 0.0316 µM, first compound 3.16 µM",90.6%
same,"viability, T/C","second compound 0.0316 µM, first compound 10 µM",62.7%
same,"viability, T/C","second compound 0.1 µM, first compound 0.0316 µM",83.1%
same,"viability, T/C","second compound 0.1 µM, first compound 0.1 µM",76.5%
same,"viability, T/C","second compound 0.1 µM, first compound 0.316 µM",76.2%
same,"viability, T/C","second compound 0.1 µM, first compound 1 µM",72.1%
same,"viability, T/C","second compound 0.1 µM, first compound 3.16 µM",87.7%
same,"viability, T/C","second compound 0.1 µM, first compound 10 µM",67.2%
same,"viability, T/C","second compound 0.316 µM, first compound 0.0316 µM",65.8%
same,"viability, T/C","second compound 0.316 µM, first compound 0.1 µM",65.7%
same,"viability, T/C","second compound 0.316 µM, first compound 0.316 µM",55.2%
same,"viability, T/C","second compound 0.316 µM, first compound 1 µM",57.3%
same,"viability, T/C","second compound 0.316 µM, first compound 3.16 µM",60.2%
same,"viability, T/C","second compound 0.316 µM, first compound 10 µM",53.5%
same,"viability, T/C","second compound 1 µM, first compound 0.0316 µM",87.2%
same,"viability, T/C","second compound 1 µM, first compound 0.1 µM",56.4%
same,"viability, T/C","second compound 1 µM, first compound 0.316 µM",46.8%
same,"viability, T/C","second compound 1 µM, first compound 1 µM",46.1%
same,"viability, T/C","second compound 1 µM, first compound 3.16 µM",54.7%
same,"viability, T/C","second compound 1 µM, first compound 10 µM",41.4%
Cn1cnc2c(F)c(Nc3ccc(Br)cc3Cl)c(C(=O)NOCCO)cc21 + COc1c(OCCCN2CCOCC2)ccc2c3n(c(=NC(=O)c4cnc(N)nc4)nc12)CCN3,IC50,[1],> 3 µM
same,IC50,[2],> 3 µM
same,IC50,[3],> 3 µM
same,IC50,[4],< 0.00949 µM
same,IC50,[5],< 0.00949 µM
same,IC50,[6],< 0.00949 µM
same,"viability, T/C","second compound 0.00316 µM, first compound 0.00949 µM",97.1%
same,"viability, T/C","second compound 0.00316 µM, first compound 0.03 µM",88.8%
same,"viability, T/C","second compound 0.00316 µM, first compound 0.0949 µM",88.3%
same,"viability, T/C","second compound 0.00316 µM, first compound 0.3 µM",94.8%
same,"viability, T/C","second compound 0.00316 µM, first compound 0.949 µM",92.5%
same,"viability, T/C","second compound 0.00316 µM, first compound 3 µM",76.6%
same,"viability, T/C","second compound 0.01 µM, first compound 0.00949 µM",89.5%
same,"viability, T/C","second compound 0.01 µM, first compound 0.03 µM",77.5%
same,"viability, T/C","second compound 0.01 µM, first compound 0.0949 µM",102%
same,"viability, T/C","second compound 0.01 µM, first compound 0.3 µM",66%
same,"viability, T/C","second compound 0.01 µM, first compound 0.949 µM",85.6%
same,"viability, T/C","second compound 0.01 µM, first compound 3 µM",92.9%
same,"viability, T/C","second compound 0.0316 µM, first compound 0.00949 µM",64%
same,"viability, T/C","second compound 0.0316 µM, first compound 0.03 µM",51.7%
same,"viability, T/C","second compound 0.0316 µM, first compound 0.0949 µM",64.6%
same,"viability, T/C","second compound 0.0316 µM, first compound 0.3 µM",57.8%
same,"viability, T/C","second compound 0.0316 µM, first compound 0.949 µM",71.9%
same,"viability, T/C","second compound 0.0316 µM, first compound 3 µM",67.7%
same,"viability, T/C","second compound 0.1 µM, first compound 0.00949 µM",41.4%
same,"viability, T/C","second compound 0.1 µM, first compound 0.03 µM",34.3%
same,"viability, T/C","second compound 0.1 µM, first compound 0.0949 µM",32.9%
same,"viability, T/C","second compound 0.1 µM, first compound 0.3 µM",38.7%
same,"viability, T/C","second compound 0.1 µM, first compound 0.949 µM",41.5%
same,"viability, T/C","second compound 0.1 µM, first compound 3 µM",35.4%
same,"viability, T/C","second compound 0.316 µM, first compound 0.00949 µM",12.8%
same,"viability, T/C","second compound 0.316 µM, first compound 0.03 µM",16.8%
same,"viability, T/C","second compound 0.316 µM, first compound 0.0949 µM",16.7%
same,"viability, T/C","second compound 0.316 µM, first compound 0.3 µM",13.7%
same,"viability, T/C","second compound 0.316 µM, first compound 0.949 µM",20.4%
same,"viability, T/C","second compound 0.316 µM, first compound 3 µM",14.4%
same,"viability, T/C","second compound 1 µM, first compound 0.00949 µM",6.16%
same,"viability, T/C","second compound 1 µM, first compound 0.03 µM",4.64%
same,"viability, T/C","second compound 1 µM, first compound 0.0949 µM",7.54%
same,"viability, T/C","second compound 1 µM, first compound 0.3 µM",7.14%
same,"viability, T/C","second compound 1 µM, first compound 0.949 µM",7.29%
same,"viability, T/C","second compound 1 µM, first compound 3 µM",6.05%
Cn1ncc(Cl)c1-c1cc(C(=O)NC(CN)Cc2cccc(F)c2)sc1Cl (stereo not given),"viability, T/C",compound 0.0316 µM,102% [middle of 4 runs]
same,"viability, T/C",compound 0.316 µM,79.4% [middle of 4 runs]
same,"viability, T/C",compound 1 µM,81.8% [middle of 4 runs]
same,"viability, T/C",compound 3.16 µM,70.3% [middle of 4 runs]
same,"viability, T/C",compound 10 µM,89% [middle of 4 runs]
same,IC50,curve of compound,> 10 µM
